# According to patent US20240245677A1, “SELECTED COMPOUNDS FOR TARGETED DEGRADATION OF BRD9” (C4 THERAPEUTICS, INC., priority 2021, published 2024):
# Tests used:
# [1] = Human Hepatocyte Stability Assay; type: in vitro ADME; conditions: cryopreserved hepatocytes
# Protocol: (§1) The metabolic stability of Compound 1 was evaluated using cryopreserved hepatocytes from mice, rats, dogs, cynomolgus monkeys, and humans.
# (§2) 50 μL of 1 mM intermediate solutions for each test compound was prepared by adding 5 μL of 10 mM stock solution to 45 μL of a 1:1 mixture of water and acetonitrile. A 2 μM working stocks for each test compound were prepared in incubation media, InvitroGRO™ KHB (Bio IVT, Westbury, NY, USA), by adding 2 μL of 1 mM intermediate stock to 998 μL of incubation media.
# (§3) To thaw the hepatocytes, InvitroGRO™ HT thawing medium (BioIVT, Westbury, NY, USA) was prewarmed to 37° C., and 48 mL of warmed thawing medium was transferred to a sterile 50 mL conical tube. The hepatocyte vial was removed from the liquid nitrogen Dewar, and gently thawed in a water bath at 37° C. for 1-2 minutes, then the contents of the vial were emptied into a conical tube with prewarmed InvitroGRO HT medium. 1 mL of prewarmed InvitroGRO HT medium was added to each emptied hepatocyte vial to resuspend any remaining cells, and the contents were pipetted into the hepatocyte suspension. The tube containing the hepatocyte suspension was centrifuged at 50*g for 5 minutes. The supernatant was removed carefully, and the remaining pellet was resuspended by adding 1 mL of incubation media, InvitroGRO KHB, and gently shaking until there were no clumps.
# (§4) Cell viability was determined using the trypan blue method. 25 μL of hepatocyte cell suspension was added to a trypan blue (TB) solution (containing 775 μL InvitroGRO KHB and 200 μL of Trypan Blue). Cell count was taken using a hemacytometer.
# (§5) For mouse hepatocytes, 200 μL of hepatocytes (0.8×10^6 cells/mL) were added to the wells of a 48 well plate (Catalog No. 92048, TPP Techno Plastic Products AG, Trasadingen, Switzerland) and pre-incubated for 30 minutes at 37° C. For rat, dog, monkey, […], 200 μL of hepatocytes (2×10^6 cells/mL) were added to the wells of a 48 well plate (Catalog No. 92048, TPP Techno Plastic Products AG, Trasadingen, Switzerland) and pre-incubated for 30 minutes at 37° C.
# (§6) For all species of hepatocytes, once the pre-incubation period was complete, 200 μL of 2 μM working stock of test compound was added to the wells of the plate, and the plate was vortexed on a Vibramax™ 100 (P/N 544-21200-00, Heidolph Instruments GmbH & Co. KG, Schwabach, Germany) at 500 rpm in a 37° C. CO2 incubator (Model No. 51026280, ThermoFisher Scientific, Waltham, MA, USA). At each time point of 0, 15, 30, 60, 90, and 120 minutes, 50 μL of incubation mixture was precipitated with 200 μL of acetonitrile containing internal standard.
# (§7) At the end of the experiment, the samples were centrifuged at 4000 rpm for 10 minutes. […]
# [2] = system: cryopreserved human hepatocytes; experiment: Human Hepatocyte Stability Assay; type: in vitro ADME
# Protocol: as §1, §2, §3, §4, §5, §6, §7
# [3] = Crystallization from hot saturated solutions by slow cooling; type: physicochemical; conditions: for Comments / XRPD: hot saturated solution
# Protocol: Samples with no precipitates were put in −20° C. freezer for crystallization. Precipitates were collected by centrifuged. Solid parts (wet cakes) were investigated by XRPD.
# [4] = system: cryopreserved hepatocytes from Sprague-Dawley rats; experiment: Rat Hepatocyte Stability Assay; type: in vitro ADME
# Protocol: as §1, §2, §3, §4, §5, §6, §7
# [5] = Rat Hepatocyte Stability Assay; type: in vitro ADME; conditions: Sprague-Dawley, cryopreserved hepatocytes
# Protocol: as §1, §2, §3, §4, §5, §6, §7
# IKZF1 = molecular target: T1, IKZF1 (Homo sapiens, UniProt Q13422+Q96SW2); experiment: IKZF1 HiBiT degradation assay in NCIH929.11 cells; type: cell-based
# T1 construct: CRISPR-edited to endogenously express HiBiT tagged IKZF1; host or cells: NCIH929.11
# T1 sequence (Q13422 whole entry): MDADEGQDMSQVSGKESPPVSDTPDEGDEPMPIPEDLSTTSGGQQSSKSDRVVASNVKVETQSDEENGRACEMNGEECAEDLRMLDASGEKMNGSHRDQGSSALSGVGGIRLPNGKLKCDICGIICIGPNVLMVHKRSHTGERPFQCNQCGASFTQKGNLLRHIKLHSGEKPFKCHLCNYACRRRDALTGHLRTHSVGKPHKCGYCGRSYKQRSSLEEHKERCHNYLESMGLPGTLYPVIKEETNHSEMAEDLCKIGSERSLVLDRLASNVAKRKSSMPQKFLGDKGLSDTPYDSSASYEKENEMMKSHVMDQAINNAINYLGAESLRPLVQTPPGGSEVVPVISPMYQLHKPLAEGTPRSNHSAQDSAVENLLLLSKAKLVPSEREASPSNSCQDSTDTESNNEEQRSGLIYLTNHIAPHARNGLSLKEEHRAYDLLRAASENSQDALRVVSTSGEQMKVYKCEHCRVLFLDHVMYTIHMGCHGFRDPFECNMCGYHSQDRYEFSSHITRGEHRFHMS
# T1 sequence (Q96SW2 whole entry): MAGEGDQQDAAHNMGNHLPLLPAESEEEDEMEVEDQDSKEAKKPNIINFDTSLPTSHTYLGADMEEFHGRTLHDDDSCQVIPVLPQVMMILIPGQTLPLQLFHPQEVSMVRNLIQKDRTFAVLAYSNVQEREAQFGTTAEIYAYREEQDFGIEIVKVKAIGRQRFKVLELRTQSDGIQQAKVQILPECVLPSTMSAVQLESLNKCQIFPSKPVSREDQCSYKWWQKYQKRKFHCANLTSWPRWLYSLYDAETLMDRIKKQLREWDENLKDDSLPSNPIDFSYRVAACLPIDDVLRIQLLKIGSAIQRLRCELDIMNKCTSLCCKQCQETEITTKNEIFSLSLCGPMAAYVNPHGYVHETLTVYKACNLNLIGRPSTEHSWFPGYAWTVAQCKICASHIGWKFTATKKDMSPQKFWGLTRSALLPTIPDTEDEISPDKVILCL
# T1 sequence (Q16531 2-1140 partner limits assumed): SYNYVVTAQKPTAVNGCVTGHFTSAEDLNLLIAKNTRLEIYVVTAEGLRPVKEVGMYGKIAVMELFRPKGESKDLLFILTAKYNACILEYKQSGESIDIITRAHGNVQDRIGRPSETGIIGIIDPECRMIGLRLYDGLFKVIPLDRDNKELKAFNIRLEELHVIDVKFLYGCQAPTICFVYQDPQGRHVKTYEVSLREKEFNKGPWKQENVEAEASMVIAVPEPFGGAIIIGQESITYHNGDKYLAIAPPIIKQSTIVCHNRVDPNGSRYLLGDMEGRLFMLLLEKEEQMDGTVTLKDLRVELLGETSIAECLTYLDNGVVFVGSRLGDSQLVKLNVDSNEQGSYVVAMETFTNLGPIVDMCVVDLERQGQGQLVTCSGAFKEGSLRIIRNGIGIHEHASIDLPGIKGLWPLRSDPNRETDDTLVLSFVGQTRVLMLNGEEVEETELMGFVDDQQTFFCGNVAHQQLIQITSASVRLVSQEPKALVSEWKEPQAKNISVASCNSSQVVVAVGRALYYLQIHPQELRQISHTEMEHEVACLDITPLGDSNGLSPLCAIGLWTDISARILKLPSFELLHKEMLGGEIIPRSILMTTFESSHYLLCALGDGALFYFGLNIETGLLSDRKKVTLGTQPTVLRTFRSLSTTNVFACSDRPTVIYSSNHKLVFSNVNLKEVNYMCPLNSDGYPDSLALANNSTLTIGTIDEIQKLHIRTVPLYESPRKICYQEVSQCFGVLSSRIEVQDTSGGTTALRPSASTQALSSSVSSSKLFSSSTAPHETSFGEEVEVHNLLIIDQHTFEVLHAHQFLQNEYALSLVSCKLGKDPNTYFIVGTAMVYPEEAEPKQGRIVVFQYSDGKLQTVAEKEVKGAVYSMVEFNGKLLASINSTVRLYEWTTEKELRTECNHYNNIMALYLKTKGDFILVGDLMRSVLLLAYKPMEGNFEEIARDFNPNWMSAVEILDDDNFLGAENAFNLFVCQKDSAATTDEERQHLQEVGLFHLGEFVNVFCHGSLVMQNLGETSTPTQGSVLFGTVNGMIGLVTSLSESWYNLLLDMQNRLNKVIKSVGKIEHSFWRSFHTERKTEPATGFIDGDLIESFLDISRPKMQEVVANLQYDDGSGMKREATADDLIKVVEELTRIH
structure (smiles),measurement,setting,value
"COc1cc(-c2cn(C)c(=O)c(C)c2C)cc(OC)c1CN1CC[C@H](N2CCN(c3ccc(N[C@H]4CCC(=O)NC4=O)cc3F)CC2)C(F)(F)C1 [Compound 1, (S)-3-((4-(4-((S)-1-(2,6-dimethoxy-4-(1,4,5-trimethyl-6-oxo-1,6-dihydropyridin-3-yl)benzyl)-3,3-difluoropiperidin-4-yl)piperazin-1-yl)-3-fluorophenyl)amino)-piperidine-2,6-dione]",half-life at 1 µM,[1],> 2 h
same,hepatocyte CLint at 1 µM,[1]; read-out: CL int cells,4.67 µL/min/1e6 cells
same,CLint scaled at 1 µM,[1]; read-out: CL int in vivo,14.4 mL/min/kg
same,CLhb scaled well stirred,[2],8.4 mL/min/kg body wt.
same,Comments: form after seeding,"[3]; 2-MeTHF, add Pattern G as seeds, slurry for 5 days",Pattern G
same,Comments,[3]; 2-MeTHF,Clear solution
same,XRPD,[3]; Acetone,Pattern B
same,XRPD,[3]; Ethanol,Pattern F
same,Comments,[3]; Ethyl acetate,Clear solution
same,Comments,[3]; Methanol,Clear solution
same,CLh int in vivo,[4],17.76 mL/min/Kg body wt.
same,CLhb scaled well stirred,[4],14.2 mL/min/kg body wt.
same,half-life at 1 µM,[5],> 2 h
same,hepatocyte CLint at 1 µM,[5]; read-out: CL int cells,3.7 µL/min/1e6 cells
same,"% IKZF1 Remaining Relative to Vehicle Control at 6 hr, Mean",IKZF1; 0.101 nM,100.8%
same,"% IKZF1 Remaining Relative to Vehicle Control at 6 hr, Mean",IKZF1; 0.318 nM,106.4%
same,"% IKZF1 Remaining Relative to Vehicle Control at 6 hr, Mean",IKZF1; 1.01 nM,102.9%
same,"% IKZF1 Remaining Relative to Vehicle Control at 6 hr, Mean",IKZF1; 3.17 nM,100.4%
same,"% IKZF1 Remaining Relative to Vehicle Control at 6 hr, Mean",IKZF1; 10.0 nM,98.5%
same,"% IKZF1 Remaining Relative to Vehicle Control at 6 hr, Mean",IKZF1; 31.7 nM,96.0%
same,"% IKZF1 Remaining Relative to Vehicle Control at 6 hr, Mean",IKZF1; 100 nM,95.9%
same,"% IKZF1 Remaining Relative to Vehicle Control at 6 hr, Mean",IKZF1; 317 nM,91.5%
same,"% IKZF1 Remaining Relative to Vehicle Control at 6 hr, Mean",IKZF1; 1000 nM,93.3%
same,"% IKZF1 Remaining Relative to Vehicle Control at 6 hr, Mean",IKZF1; 3161 nM,80.8%
same,"% IKZF1 Remaining Relative to Vehicle Control at 6 hr, Mean",IKZF1; 9990 nM,74.2%
same,degradation of IKZF1,"IKZF1; 10 μM, 6 hours",25%
same,Emax,"IKZF1; IKZF1-HiBiT, NCIH929.11 cells, 6 hours, read-out: Mean Emax (%) ± SD",74.2 ± 8.2%
same,effect on degradation of IKZF1,"IKZF1; concentrations up to 1 μM, 6 hours",no significant effect
